According to patent US9504702B2, “Methods of inhibition of protein fucosylation in vivo using fucose analogs” (Seattle Genetics, Inc., priority 2010, dated 2016):

Legend:
[1] = tested on: antibody core fucosylation (antibodies that did not bind to KLH, recovered from protein A column); assay: In vivo antibody fucosylation after ip dosing (Example 1, Study 1), AOL lectin dot blot; settings: 150 mg/kg ip daily for 7 days; for fucosylation levels of the antibodies reduced, as compared to the untreated controls: non-KLH antibodies from protein A column, dot blot, on average
Description: Female BALB/c mice were immunized with Keyhole Limpet Hemocyanin (KLH) 30-60 days prior to starting this study. For the first study, mice were dosed ip with 150 mg/kg of alkynyl fucose (SGD-1887), alkynyl fucose peracetate (SGD-1890), 2-fluorofucose (SGD-2083), or 2-fluorofucose triacetate (SGD-2084) daily for 7 days or were untreated. On day 2, mice were also boosted with KLH. On the day after the last ip dose, mice were terminally bled and serum obtained. For the second study, mice were given 100 mM of 2-fluorofucose (SGD-2083) in their drinking water or given untreated water for 7 days, boosted with KLH, and continued with 100 mM 2-fluorofucose containing drinking water or untreated water for 7 more days before being terminally bled. Serum was then obtained. No mice died in either study. For both studies, serum was passed over a commercial anti-KLH affinity column to obtain KLH-specific polyclonal antibodies. The flow through from the anti-KLH affinity column was passed over a commercial protein A column to obtain the remaining antibodies.
Dot blots: 0.5 μg each of antibodies from untreated and treated animals, as well as standards of antibody cAC10 having known amounts of core fucosylation (0 to 100% fucose), were blotted onto a nitrocellulose membrane. The proteins levels were visualized by Ponceau staining. The blot was probed with biotinylated Aspergillus oryzae L-fucose-specific lectin (AOL) (which binds to fucosylated antibodies) and developed with streptavidin HRP and ECL. Gel loading (visible) and fucose signals (bioluminescence) were measured with an Alpha Innotech camera and quantitated with the machine software.

Ramos Burkitt lymphoma = assay: Xenograft of pre-treated Ramos cells (Example 7, Study 2); type: in vivo, female SCID mice; settings: 20 mM in drinking water
Description: (§1) To further evaluate the activity of these fucose analogs, further studies were performed in vivo using tumor cells that had been pre-treated by culturing in the presence of a fucose analog, or using untreated tumor cells. Tumor cells were implanted into 10 mice per group as follows. For the LS174T, PC-3, and Caki-1 cell lines, 5×10^5 cells in 25% Matrigel were implanted subcutaneously into female nude mice. For HL-60 and Ramos cell lines, 5×10^6 cells were implanted subcutaneously into female SCID mice. For mice implanted with untreated tumor cells, mice were provided regular drinking water. For mice implanted with tumor cells pre-treated with 2-fluorofucose (SGD-2083), the mice were provided drinking water supplemented with 20 mM 2-fluorofucose (SGD-2083). For mice implanted with tumor cells pre-treated with alkylnyl fucose (SGD-1887), the mice were provided with regular drinking water.
(§2) After 3 weeks of receiving 2-fluorofucose-containing drinking water, mice were returned to regular drinking water, except for mice with Caki-1 tumors. The latter mice were returned to regular drinking water for one week. After the week of receiving regular water, mice were randomized to two groups of 5 each to receive drinking water supplemented with 20 mM 2-fluorofucose or regular drinking water. Mice were sacrificed when tumors reached about 1000 mm^3.

[2] = tested on: circulating white blood cells and neutrophils; lymph nodes; assay: Leukocytosis and lymph node cellularity following oral dosing; type: in vivo, Female Balb/c mice
Description: (§3) The effects of a fucose analog on leukocytosis and E-selectin binding were eamined in mice. Female Balb/c mice were given oral 2-fluorofucose (SGD-2083) in the drinking water or left untreated. Mice were bled prior to dosing and then weekly for three weeks to assess circulating cell numbers and their ability to bind E-selectin. In one study, 2-fluorofucose was formulated at 1 mM, 10 mM or 100 mM in the drinking water (n=3 per group). At day 14, mice were treated with TiterMAX® Classic adjuvant (Sigma) to stimulate polyclonal, antigen non-specific antibody production by B cells, and remained on the 2-fluorofucose-containing water through day 21. In a second study, mice were given oral 2-fluorofucose formulated at 10 mM and 100 mM in the drinking water for three weeks without any other treatments (n=6). On day 21, a pool of lymph nodes (axillary, brachial, superficial inguinal, and mesenteric) from each of three animals was assessed in addition to blood. Lymph nodes were homogenized into single cell suspensions, and total cell numbers were determined by counting on a hemcytometer, using Trypan Blue for dead cell exclusion. To determine total white cell numbers/μL blood, samples of blood from individual animals were counted on a hemacytometer, using Turk's solution (0.01% gentian violet in 3% acetic acid) to exclude red blood cells (RBCs). RBCs were eliminated from the remainder of the blood by osmotic lysis for flow cytometric analysis. Cells were incubated with anti-Gr-1-FITC antibodies (BD Biosciences) to identify neutrophils, and a recombinant E-selectin-human Fc fusion protein (R&D Systems). Cells were washed and then incubated with a PE-labeled goat anti-human IgG-Fc secondary antibody (Jackson Immunoresearch) to detect bound E-selectin. Samples were collected on a FACSCalibur flow cytometer and analyzed using CellQuest software. The percentage of Gr-1+ cells was determined and absolute number of neutrophils was calculated using the total white cell number from the hemacytometer count. In addition, flow samples were gated for Gr-1+ cells to assess E-selectin binding to neutrophils by histogram analysis. The geometric mean of the E-selectin fluorescent signal was determined from the histogram.

[3] = tested on: E-selectin binding to neutrophils; assay: E-selectin binding to neutrophils following oral dosing, flow cytometry; type: in vivo, Female Balb/c mice
Description: as §3, with “In addition, flow samples were gated for Gr-1+ cells to assess E-selectin binding to neutrophils by histogram analysis.” left out

[4] = tested on: LS174T colon adenocarcinoma cells; assay: Xenograft of LS174T cells without prior treatment (Example 7, Study 3); type: in vivo, female nude mice
Description: In a third study, tumor cells were implanted without prior treatment with a fucose analog. LS174T colon adenocarcinoma cells (5×10^5 cells in 25% Matrigel) were implanted subcutaneously into female nude mice. Mice were supplied with 50 mM 2-fluorofucose (SGD-2083) in their drinking water from 7 days before implant until 21 days after implant, or were supplied with regular drinking water.

[5] = tested on: Caki-1 renal cell carcinoma; assay: Xenograft of pre-treated Caki-1 cells (Example 7, Study 2); type: in vivo, female nude mice; settings: 20 mM in drinking water, not in first treatment period, observed in second
Description: as §1, §2

[6] = tested on: HL-60 acute mylogenous leukemia; assay: Xenograft of pre-treated HL-60 cells (Example 7, Study 2); type: in vivo, female SCID mice; settings: 20 mM in drinking water
Description: as §1, §2

[7] = oral in drinking water, dose-dependent

Row | SMILES | mortality [1] | fucosylation levels of the antibodies reduced, as compared to the untreated controls [1] | tumor growth (Ramos Burkitt lymphoma) | effect on circulating white blood cells and neutrophils ([2]; 1 mM in drinking water) | effect on circulating white blood cells and neutrophils ([2]; 10 mM and 100 mM in drinking water) | cellularity in the lymph nodes ([2]; day 21, second study, 10 mM and 100 mM in drinking water, more severe at 100 mM) | circulating white blood cells and neutrophils [2, 7] | effect on E-selectin binding to neutrophils ([3]; 1 mM) | effect on E-selectin binding to neutrophils ([3]; 10 mM and 100 mM) | E-selectin binding to neutrophils [3, 7] | tumor growth ([4]; 50 mM in drinking water) | average tumor size ([4]; 50 mM in drinking water from 7 days before until 21 days after implant, regular water 734 mm^3) | tumor growth [5] | tumor growth [6]
1 | C#CC(OC(C)=O)[C@@H](OC(C)=O)[C@@H](OC(C)=O)[C@@H](C=O)OC(C)=O (stereo partly drawn) [SGD-1890, 5-ethynylarabinose tetraacetate] | No mice died | about one third |  |  |  |  |  |  |  |  |  |  |  | 
2 | C[C@H](O)[C@@H](O)[C@@H](O)[C@H](F)C=O [SGD-2083, 2-fluoro-2-deoxy fucose] |  | about one third | No change in tumor growth | very little effect | increasing effect | marked decreased | increase | little effect | increasing effects | decreased | substantial inhibition of tumor growth | 110 mm^3 | tumor growth inhibition in vivo was seen | No change in tumor growth
